The subject of the assay is M. tuberculosis H37 Rv (ATCC 27294). Kind of assay: MIC determination in medium 7H9 by Alamar Blue (MABA) method and FIC synergism, standard strain H37Rv. In kind it is cell-based, Mycobacterium tuberculosis. On the technique in general: Alamar Blue is a resazurin reagent that responds to reducing activity.

Experimental findings from patent US10688088B2 (priority 2015, dated 2020) are described below.

Regarding `NNC(=O)c1ccncc1` [INH, isoniazid], the “MIC 1: MIC of the substance tested alone” value came out at 0.20. In addition, the “MIC 2: MIC of the substance tested in combination” value (shortened to “MIC 2: MIC of the substance tested”) (combination MFL + INH) amounted to 0.10.

`OC(c1cc(C(F)(F)F)nc2c(C(F)(F)F)cccc12)C1CCCCN1` (centres unmarked) [Mefloquine, mefloquine]: the “MIC 2: MIC of the substance tested” value runs as follows: (combination MEF + CPX) 0.62; (combination MEF + LVX) 0.62; (combination MFL + GAT) 0.12; (combination MFL + INH) 0.10; (combination MFL + LYN) 0.62; (combination MFL + MOX) 0.15. The “MIC 2: MIC of the substance tested” value amounted to 0.62 (combination MFL + OFX), 3.12 (combination MFL + PYR) and 0.12 (combination MFL + SPR).

As for `COc1c(N2CCNC(C)C2)c(F)cc2c(=O)c(C(=O)O)cn(C3CC3)c12` (centres unmarked) [GAT, gatifloxacin], the “MIC 1: MIC of the substance tested alone” value was 0.12. Also, the “MIC 2: MIC of the substance tested” value (combination MFL + GAT) came to 0.12.

For `COc1c(N2C[C@@H]3CCCN[C@@H]3C2)c(F)cc2c(=O)c(C(=O)O)cn(C3CC3)c12` [MOX, moxifloxacin], the “MIC 1: MIC of the substance tested alone” value came out at 0.25. In addition, the “MIC 2: MIC of the substance tested” value (combination MFL + MOX) is reported as 0.15.

As for `CC1COc2c(N3CCN(C)CC3)c(F)cc3c(=O)c(C(=O)O)cn1c23` (centres unmarked) [OFX, ofloxacin], the “MIC 1: MIC of the substance tested alone” value was 1.25. In addition, the “MIC 2: MIC of the substance tested” value (combination MFL + OFX) came to 0.62.

Take `CC[C@@H](CO)NCCN[C@@H](CC)CO` [ETB, ethambutol]: the “MIC 1: MIC of the substance tested alone” value was determined as 1.25. In addition, the “MIC 2: MIC of the substance tested” value (combination MFL + ETB) amounted to 1.25.

`NC(=O)c1cnccn1` [PYR, pyrazinamide]: the “MIC 1: MIC of the substance tested alone” value turned out to be 100. Besides, the “MIC 2: MIC of the substance tested” value (combination MFL + PYR) worked out at 3.12.

As to `CC(=O)NC[C@H]1CN(c2ccc(N3CCOCC3)c(F)c2)C(=O)O1` [LYN, linezolid], the “MIC 1: MIC of the substance tested alone” value is reported as 0.62. Further, where the note is “combination MFL + LYN”, the “MIC 2: MIC of the substance tested” value is reported as 0.62.

As for `C[C@H]1COc2c(N3CCN(C)CC3)c(F)cc3c(=O)c(C(=O)O)cn1c23` [LVX, levofloxacin], the “MIC 1: MIC of the substance tested alone” value is listed as 0.62. Besides, the “MIC 2: MIC of the substance tested” value (combination MEF + LVX) was 0.62.

Consider `O=C(O)c1cn(C2CC2)c2cc(N3CCNCC3)c(F)cc2c1=O` [CPX, ciprofloxacin], for which the “MIC 1: MIC of the substance tested alone” value came out at 0.62. Also, the “MIC 2: MIC of the substance tested” value (combination MEF + CPX) worked out at 0.62.

With `C[C@@H]1CN(c2c(F)c(N)c3c(=O)c(C(=O)O)cn(C4CC4)c3c2F)C[C@H](C)N1` [SPR, sparfloxacin], the “MIC 1: MIC of the substance tested alone” value stood at 0.12. The “MIC 2: MIC of the substance tested” value (combination MFL + SPR) is 0.12.
